According to ChEMBL document CHEMBL1201862, “PubChem BioAssay data set” (2004):
Active and inactive are the calls of the source.

Assays:
[1] = molecular target: NS3 (Hepatitis C virus, UniProt A3EZJ3); assay: PubChem AID 2173; set-up: species or system Hepacivirus hominis
[2] = molecular target: Induced myeloid leukemia cell differentiation protein Mcl-1 (Homo sapiens, UniProt Q07820); type: functional
[3] = molecular target: T1, Heat shock factor protein 1 (Mus musculus, UniProt P38532); assay: enhancement of HSF1-driven luciferase signal – cell-based, NIH3T3, luminescence, dose retest, confirmation (AID 435004); type: functional;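 also: stress induced by proteasome inhibitor MG132 added 30 min after compound; luciferase reporter driven by HSF1 response element in NIH3T3 cells; actives raise luminescence as potentiators of the MG132 stress response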
T1 sequence (P38532 whole entry): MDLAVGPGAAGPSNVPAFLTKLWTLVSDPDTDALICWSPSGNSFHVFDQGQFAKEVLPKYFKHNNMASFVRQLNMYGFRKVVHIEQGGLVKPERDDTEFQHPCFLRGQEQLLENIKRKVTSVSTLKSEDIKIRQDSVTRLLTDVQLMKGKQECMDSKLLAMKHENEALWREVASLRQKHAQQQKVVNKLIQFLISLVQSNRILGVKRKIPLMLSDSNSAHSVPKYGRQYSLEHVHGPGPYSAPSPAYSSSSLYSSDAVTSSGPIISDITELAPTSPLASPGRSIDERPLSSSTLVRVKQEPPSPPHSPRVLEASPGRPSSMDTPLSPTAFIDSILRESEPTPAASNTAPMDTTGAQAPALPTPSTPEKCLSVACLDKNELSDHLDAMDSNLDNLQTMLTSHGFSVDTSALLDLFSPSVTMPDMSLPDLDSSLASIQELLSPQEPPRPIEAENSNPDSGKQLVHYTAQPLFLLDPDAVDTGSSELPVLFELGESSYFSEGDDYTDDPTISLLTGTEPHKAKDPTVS

[4] = molecular target: Serine/threonine-protein phosphatase PP1-alpha catalytic subunit (Homo sapiens, UniProt P62136); assay: inhibition of protein phosphatase 1 activity – biochemical, fluorescence, dose response (AID 2394)
[5] = test system: Streptococcus sp. 'group A'; assay: Streptococcus pyogenes SK(-)GAS viability under kanamycin – luminescence, BacTiterGlo, confirmation, counter-screen for streptokinase expression inhibitor project, dose response (AID 1900); type: functional, organism-based
[6] = molecular target: T2, Streptokinase A (Streptococcus pyogenes serotype M1, UniProt P10520); assay: viability-normalized secreted streptokinase activity reduction – plasminogen activation absorbance, OD405, dose response (AID 1914); type: functional, Streptococcus pyogenes M1 GAS;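 also: secreted streptokinase activity via plasminogen activation per viability signal from cell pellet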
T2 sequence (P10520 whole entry): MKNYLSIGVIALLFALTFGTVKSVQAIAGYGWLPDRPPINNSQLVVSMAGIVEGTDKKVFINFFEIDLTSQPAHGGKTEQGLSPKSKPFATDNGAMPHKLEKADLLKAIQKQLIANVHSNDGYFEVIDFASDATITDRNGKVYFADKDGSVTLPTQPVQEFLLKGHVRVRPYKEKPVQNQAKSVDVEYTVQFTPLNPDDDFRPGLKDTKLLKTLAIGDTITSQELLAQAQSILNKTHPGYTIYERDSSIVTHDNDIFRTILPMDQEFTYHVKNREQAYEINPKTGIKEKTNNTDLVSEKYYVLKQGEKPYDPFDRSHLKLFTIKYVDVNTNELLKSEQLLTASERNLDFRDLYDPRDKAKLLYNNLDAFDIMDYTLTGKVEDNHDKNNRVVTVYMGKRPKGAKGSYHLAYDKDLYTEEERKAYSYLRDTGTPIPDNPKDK

[7] = Trypanosoma cruzi growth suppression in host cells – NIH3T3 host cells, beta-gal luminescence, confirmation (AID 2044); type: functional, cell-based;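 also: intracellular parasites grown in NIH/3T3 mouse fibroblasts as host cells; luminescent beta-galactosidase reporter signal from transgenic T. cruzi replicating inside host cells; inhibitors lower the luminescence signal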
[8] = molecular target: Protein-tyrosine kinase 2-beta (Homo sapiens, UniProt Q14289);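 also: potency of inhibitors of PYK2 kinase phosphorylation of poly-GT substrate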
[9] = molecular target: Serine/threonine-protein phosphatase (Homo sapiens, UniProt Q9BPW0); assay: inhibition of protein phosphatase 5 activity – biochemical, fluorescence, dose response (AID 2395)
[10] = NIH3T3 cell viability loss – ATP luminescence, mouse fibroblasts, counter-screen, dose response (AID 2010); type: functional, cell-based;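 also: cells exposed to compound for about 90 hours before reading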
[11] = mitochondrial function rescue without frataxin homolog – Friedreich's ataxia, plus single-dose screen, dose response (AID 1465); type: functional;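 also: yeast depleted of Yfh1p frataxin homolog grown on glycerol needing respiration; WST-1 tetrazolium dye reduction as measure of cellular dehydrogenase metabolic activity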
[12] = test system: Streptococcus; assay: GAS UMAA2166 growth inhibition – luminescence, BacTiterGlo, counter-screen for streptokinase expression inhibitor project, dose response (AID 1915); type: functional, organism-based;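 also: potency for reduction of bacterial viability or growth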
[13] = molecular target: T3, Apoptotic protease-activating factor 1 (Homo sapiens, UniProt O14727); type: functional
T3 sequence (O14727 whole entry): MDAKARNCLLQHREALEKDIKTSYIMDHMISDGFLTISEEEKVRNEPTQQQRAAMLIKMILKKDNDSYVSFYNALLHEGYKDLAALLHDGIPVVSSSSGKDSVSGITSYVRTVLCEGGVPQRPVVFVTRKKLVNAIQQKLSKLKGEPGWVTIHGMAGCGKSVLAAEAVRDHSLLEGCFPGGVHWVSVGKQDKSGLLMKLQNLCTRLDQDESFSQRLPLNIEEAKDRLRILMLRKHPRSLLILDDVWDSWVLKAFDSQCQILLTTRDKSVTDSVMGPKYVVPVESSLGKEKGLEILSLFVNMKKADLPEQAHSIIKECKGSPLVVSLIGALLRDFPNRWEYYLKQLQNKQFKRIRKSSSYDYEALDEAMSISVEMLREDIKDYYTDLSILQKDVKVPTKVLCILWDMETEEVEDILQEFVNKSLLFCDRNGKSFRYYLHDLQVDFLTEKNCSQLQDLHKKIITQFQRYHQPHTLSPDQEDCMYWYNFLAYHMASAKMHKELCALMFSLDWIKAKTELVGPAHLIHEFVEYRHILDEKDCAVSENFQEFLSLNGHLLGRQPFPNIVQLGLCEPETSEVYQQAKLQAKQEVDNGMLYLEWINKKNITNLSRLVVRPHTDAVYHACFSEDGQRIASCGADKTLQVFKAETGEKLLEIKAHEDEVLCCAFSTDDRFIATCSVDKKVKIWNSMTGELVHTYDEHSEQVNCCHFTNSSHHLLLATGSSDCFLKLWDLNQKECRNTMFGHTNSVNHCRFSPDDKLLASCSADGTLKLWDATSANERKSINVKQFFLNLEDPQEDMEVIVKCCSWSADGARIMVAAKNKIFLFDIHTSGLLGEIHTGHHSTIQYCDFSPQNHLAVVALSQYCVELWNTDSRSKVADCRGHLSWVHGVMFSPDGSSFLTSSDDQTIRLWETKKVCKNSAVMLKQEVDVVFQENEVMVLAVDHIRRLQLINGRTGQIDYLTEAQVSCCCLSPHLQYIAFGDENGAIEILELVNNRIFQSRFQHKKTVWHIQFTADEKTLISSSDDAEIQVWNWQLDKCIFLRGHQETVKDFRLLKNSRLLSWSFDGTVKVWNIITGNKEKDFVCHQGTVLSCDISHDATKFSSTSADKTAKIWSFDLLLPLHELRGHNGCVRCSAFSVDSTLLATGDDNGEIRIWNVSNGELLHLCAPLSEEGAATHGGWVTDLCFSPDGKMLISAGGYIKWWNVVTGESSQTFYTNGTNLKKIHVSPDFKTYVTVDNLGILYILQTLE

[14] = test system: INS1; assay: INS-1E survival protection against cytokine death – cell-based, luminescence, retest, dose response (AID 449756); type: functional; conditions: Rattus norvegicus;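 also: cell death triggered by IL-1 beta plus TNF-alpha plus IFN-gamma mixture; protective hits raise ATP signal compared with cytokine alone wells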
[15] = test system: HEK293; assay: Fluorescence-based counterscreen for potentiators or agonists of NPY-Y2: cell-based high-throughput dose response assay to identify inhibitors of cyclic nucleotide gated ion channel (CNGC) activity. In this assay, the parental HEK293 cell line transfected with a cyclic-nucleotide gated ion channel (CNGC)-based cAMP sensor is used to measure inhibition of isoproterenol-induced CNGC activity by test compound.; type: functional; conditions: Homo sapiens;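 also: stimulus is 1 µM isoproterenol at EC100 plus PDE inhibitor Ro 20-1724 at 25 µM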
[16] = molecular target: Neuropeptide Y receptor type 2 (Homo sapiens, UniProt P49146); assay: Fluorescence-based cell-based high-throughput dose response assay for agonists of NPY-Y2. [Related pubchem assays: 1703 (Screening assay (CNGC inhibitors).), 1359 (Screening assay (NPY-Y2 potentiators or agonists).), 1304 (Screening assay (NPY-Y1 potentiators or agonists).), 1710 (Screening assay (NPY-Y2 agonists).), 1791 (Summary AID.)]; type: functional
[17] = microbe, parasite or virus in culture; type: functional; conditions: Mycobacterium tuberculosis
[18] = molecular target: Neuropeptide Y receptor type 1 (Homo sapiens, UniProt P25929); assay: Fluorescence-based counterscreen for agonists of NPY-Y2: cell-based high-throughput dose response assay for agonists of NPY-Y1.; type: functional
[19] = luciferase reporter signal suppression in cells – H4 neuroglioma cells, luminescence, dose response (AID 1990); type: functional, cell-based
[20] = test system: HeLa; assay: Cytotoxicity counterscreen assay for transcriptional activators of heat shock protein 70 (Hsp70). [Related pubchem assays: 1203, 1252 ]; type: functional; conditions: Homo sapiens;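 also: cells exposed to compound for 16 hours before readout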
[21] = test system: BJ; assay: BJ-TERT fibroblast viability loss – cell-based, RAS-independent, luminescence, dose response (AID 1933); type: functional; conditions: Homo sapiens
[22] = Luminescence Cell-Based Dose Response HTS to Identify Inhibitors of 5'UTR Stem-Loop Driven Prion Protein mRNA Translation in H4 Neuroglioblastoma Cells. [Related pubchem assays: 1827 (Project Summary), 1813 (Primary HTS)]; type: functional
[23] = alpha-synuclein stem-loop luciferase translation blockers – H4 neuroglioma cells, luminescence, confirmation (AID 1988); type: functional, cell-based
[24] = test system: BJ; assay: cells; type: functional, cell-based; conditions: Homo sapiens
[25] = molecular target: G-protein coupled receptor 55 (Homo sapiens, UniProt Q9Y2T6); assay: inhibition of LPI-stimulated GPR55 beta-arrestin translocation – imaging, U2OS, beta-arrestin-GFP, LPI agonist, primary screen (AID 2013); type: functional;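 also: antagonist potency measured as reduced agonist-driven arrestin aggregation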
[26] = test system: BJ; assay: BJ-TERT-LT-ST fibroblast viability loss – cell-based, RAS-independent, luminescence, dose response (AID 1935); type: functional; conditions: Homo sapiens;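 also: BJ fibroblasts immortalized with TERT plus LT and ST oncogenes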
[27] = DRD fibroblast viability loss – cell-based, non-viral oncogenic, luminescence, dose response (AID 1934); type: functional; conditions: Homo sapiens
[28] = molecular target: Heat shock protein HSP 90-alpha (Homo sapiens, UniProt P07900); type: functional, organism-based
[29] = test system: BJ; assay: growth inhibition of engineered Ras-driven BJ cells – cell-based, alamar blue fluorescence, cherrypicked samples, dose response (AID 2631); type: functional; conditions: Homo sapiens;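 also: confirmatory dose-response assay in RAS-dependent BJ fibroblasts engineered with TERT, LT and ST, with cytotoxicity read by fluorescence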
[30] = molecular target: T4, Estrogen receptor (Homo sapiens, UniProt P03372); assay: ERα coactivator recruitment enhancers – biochemical, TR-FRET, ERα LBD, dose response (AID 737)
T4 sequence (P03372 whole entry): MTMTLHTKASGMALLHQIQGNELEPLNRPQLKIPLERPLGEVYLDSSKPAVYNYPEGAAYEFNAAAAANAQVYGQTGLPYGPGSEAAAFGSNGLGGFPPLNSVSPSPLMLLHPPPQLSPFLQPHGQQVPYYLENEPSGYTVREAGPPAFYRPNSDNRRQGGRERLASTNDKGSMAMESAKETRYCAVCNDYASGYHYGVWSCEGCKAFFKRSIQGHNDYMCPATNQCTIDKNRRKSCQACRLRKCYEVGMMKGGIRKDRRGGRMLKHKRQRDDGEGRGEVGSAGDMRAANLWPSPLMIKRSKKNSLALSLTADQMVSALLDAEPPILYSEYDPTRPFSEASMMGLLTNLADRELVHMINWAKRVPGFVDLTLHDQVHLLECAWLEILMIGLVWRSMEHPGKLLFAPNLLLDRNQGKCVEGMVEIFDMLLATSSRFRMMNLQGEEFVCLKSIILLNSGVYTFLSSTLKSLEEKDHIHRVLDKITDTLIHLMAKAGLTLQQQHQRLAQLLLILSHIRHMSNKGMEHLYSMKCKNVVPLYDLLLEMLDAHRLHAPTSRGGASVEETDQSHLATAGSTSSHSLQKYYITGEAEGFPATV

Chain of Serine/threonine-protein phosphatase PP1-alpha catalytic subunit (P62136 whole entry): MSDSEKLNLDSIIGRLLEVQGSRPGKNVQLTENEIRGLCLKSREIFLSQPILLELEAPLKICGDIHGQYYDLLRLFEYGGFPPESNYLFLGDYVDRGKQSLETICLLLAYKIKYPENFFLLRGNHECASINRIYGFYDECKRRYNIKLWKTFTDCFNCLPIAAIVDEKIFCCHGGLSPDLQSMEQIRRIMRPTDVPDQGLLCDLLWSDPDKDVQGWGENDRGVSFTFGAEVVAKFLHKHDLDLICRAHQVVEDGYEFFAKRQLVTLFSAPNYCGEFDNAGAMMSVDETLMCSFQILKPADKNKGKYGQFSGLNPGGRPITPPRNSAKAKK
Chain of NS3 (A3EZJ3 whole entry): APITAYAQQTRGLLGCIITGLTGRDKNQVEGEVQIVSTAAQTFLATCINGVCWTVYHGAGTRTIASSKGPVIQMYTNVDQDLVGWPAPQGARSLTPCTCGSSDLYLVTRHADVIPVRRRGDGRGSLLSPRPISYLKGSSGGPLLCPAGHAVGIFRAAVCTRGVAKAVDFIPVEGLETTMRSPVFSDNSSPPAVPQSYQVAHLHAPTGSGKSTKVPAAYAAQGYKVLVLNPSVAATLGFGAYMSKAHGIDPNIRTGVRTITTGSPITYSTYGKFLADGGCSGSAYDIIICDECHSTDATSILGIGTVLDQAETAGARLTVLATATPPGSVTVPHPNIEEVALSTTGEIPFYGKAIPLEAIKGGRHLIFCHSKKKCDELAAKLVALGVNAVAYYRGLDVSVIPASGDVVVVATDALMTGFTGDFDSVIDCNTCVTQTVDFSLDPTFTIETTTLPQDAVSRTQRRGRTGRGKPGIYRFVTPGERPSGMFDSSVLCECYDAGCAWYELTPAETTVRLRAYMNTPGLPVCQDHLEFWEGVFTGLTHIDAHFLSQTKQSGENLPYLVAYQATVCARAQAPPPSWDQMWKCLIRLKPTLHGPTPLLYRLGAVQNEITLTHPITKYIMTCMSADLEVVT
Chain of G-protein coupled receptor 55 (Q9Y2T6 whole entry): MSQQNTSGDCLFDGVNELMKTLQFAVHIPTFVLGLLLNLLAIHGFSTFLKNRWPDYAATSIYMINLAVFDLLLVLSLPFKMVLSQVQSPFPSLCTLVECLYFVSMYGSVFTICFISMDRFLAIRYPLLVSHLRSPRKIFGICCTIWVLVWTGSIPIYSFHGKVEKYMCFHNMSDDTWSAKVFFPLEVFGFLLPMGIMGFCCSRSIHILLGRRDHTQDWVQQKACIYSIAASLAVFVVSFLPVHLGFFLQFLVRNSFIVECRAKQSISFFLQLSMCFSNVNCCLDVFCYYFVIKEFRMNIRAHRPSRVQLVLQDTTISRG
Chain of Protein-tyrosine kinase 2-beta (Q14289 whole entry): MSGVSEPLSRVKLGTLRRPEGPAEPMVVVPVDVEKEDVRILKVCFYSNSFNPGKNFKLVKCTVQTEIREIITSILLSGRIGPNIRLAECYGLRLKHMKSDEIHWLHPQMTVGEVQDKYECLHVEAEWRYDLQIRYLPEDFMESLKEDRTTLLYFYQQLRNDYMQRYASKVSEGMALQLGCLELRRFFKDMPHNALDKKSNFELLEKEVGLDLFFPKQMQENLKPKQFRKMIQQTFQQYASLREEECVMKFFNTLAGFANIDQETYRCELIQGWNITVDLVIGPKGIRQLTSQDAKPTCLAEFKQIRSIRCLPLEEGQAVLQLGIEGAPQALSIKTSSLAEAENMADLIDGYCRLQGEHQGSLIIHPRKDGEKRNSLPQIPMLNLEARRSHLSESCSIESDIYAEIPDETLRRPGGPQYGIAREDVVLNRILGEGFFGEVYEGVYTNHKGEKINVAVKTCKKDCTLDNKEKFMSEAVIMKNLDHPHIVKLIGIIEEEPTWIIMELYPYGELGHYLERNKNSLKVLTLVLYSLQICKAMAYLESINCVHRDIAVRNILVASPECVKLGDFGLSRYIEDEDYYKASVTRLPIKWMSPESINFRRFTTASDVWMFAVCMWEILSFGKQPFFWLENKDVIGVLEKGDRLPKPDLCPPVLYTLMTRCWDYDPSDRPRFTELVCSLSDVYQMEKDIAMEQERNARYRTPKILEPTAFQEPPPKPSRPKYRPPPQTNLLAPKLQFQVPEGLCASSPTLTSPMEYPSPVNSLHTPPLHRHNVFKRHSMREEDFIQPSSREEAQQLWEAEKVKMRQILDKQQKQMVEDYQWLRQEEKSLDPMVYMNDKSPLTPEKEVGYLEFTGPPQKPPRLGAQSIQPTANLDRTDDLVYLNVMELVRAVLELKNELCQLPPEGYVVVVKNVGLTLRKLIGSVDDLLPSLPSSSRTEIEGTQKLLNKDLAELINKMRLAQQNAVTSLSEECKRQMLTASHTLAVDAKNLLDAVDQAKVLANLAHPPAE
Chain of Neuropeptide Y receptor type 2 (P49146 whole entry): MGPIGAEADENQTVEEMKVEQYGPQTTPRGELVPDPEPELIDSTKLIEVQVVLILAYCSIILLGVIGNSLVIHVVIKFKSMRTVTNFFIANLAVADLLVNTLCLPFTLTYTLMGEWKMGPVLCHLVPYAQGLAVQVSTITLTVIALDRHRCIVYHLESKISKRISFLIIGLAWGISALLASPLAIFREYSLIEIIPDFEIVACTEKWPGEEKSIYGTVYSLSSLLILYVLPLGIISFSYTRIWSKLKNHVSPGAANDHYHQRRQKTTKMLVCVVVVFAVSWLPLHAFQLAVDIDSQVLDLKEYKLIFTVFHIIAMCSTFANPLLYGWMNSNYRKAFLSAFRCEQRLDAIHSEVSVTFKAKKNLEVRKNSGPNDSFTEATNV
Chain of Induced myeloid leukemia cell differentiation protein Mcl-1 (Q07820 whole entry): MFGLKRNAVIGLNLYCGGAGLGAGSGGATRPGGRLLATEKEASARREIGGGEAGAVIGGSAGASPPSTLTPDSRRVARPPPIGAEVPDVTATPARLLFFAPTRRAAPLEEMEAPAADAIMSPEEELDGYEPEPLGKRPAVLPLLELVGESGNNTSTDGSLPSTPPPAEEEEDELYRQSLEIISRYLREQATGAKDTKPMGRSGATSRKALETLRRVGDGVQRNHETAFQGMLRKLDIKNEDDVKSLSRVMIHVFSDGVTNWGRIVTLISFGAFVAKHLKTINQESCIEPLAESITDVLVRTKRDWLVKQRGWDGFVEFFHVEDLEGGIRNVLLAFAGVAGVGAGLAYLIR
Chain of Neuropeptide Y receptor type 1 (P25929 whole entry): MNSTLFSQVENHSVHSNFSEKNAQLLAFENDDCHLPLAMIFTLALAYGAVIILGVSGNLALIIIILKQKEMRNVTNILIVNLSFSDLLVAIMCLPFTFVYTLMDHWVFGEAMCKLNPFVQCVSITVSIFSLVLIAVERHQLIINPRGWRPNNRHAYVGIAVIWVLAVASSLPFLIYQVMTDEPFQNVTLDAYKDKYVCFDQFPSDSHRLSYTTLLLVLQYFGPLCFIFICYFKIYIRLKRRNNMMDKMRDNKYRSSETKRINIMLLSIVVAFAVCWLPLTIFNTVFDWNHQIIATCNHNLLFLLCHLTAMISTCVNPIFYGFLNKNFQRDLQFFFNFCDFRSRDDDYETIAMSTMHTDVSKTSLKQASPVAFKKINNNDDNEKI
Chain of Serine/threonine-protein phosphatase (Q9BPW0 whole entry): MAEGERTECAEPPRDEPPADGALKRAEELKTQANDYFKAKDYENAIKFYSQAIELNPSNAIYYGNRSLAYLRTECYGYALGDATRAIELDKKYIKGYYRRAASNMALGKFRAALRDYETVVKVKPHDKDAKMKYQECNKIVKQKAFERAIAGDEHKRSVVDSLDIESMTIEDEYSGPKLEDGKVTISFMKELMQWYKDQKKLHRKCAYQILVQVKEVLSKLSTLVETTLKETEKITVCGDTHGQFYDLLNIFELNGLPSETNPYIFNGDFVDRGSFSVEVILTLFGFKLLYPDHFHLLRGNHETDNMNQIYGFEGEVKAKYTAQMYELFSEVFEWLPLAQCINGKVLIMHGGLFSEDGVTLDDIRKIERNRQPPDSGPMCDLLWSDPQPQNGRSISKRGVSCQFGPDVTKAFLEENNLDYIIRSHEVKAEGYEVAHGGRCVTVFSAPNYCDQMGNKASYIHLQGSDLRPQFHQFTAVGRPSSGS

COc1ccc(NC2=NC(=O)/C(=C\C=C\c3ccco3)S2)cc1
IC50 [1]: 25.9 µM (not active)
IC50 [2]: 3.02 µM (active)
EC50 [3]: > 260 µM (inactive)

Cc1ccc(Cl)cc1NC1=C/C(=N\S(=O)(=O)c2cccs2)c2ccccc2C1=O
IC50 [4]: 38.9 µM (not active)
EC50 [5]: 0.427 µM (active)
EC50 [6]: > 150 µM (not active)
EC50 [7]: 1.6 µM (active)
IC50 [8]: > 69.5 µM (not active)
IC50 [9]: 2.49 µM (active)
EC50 [10]: 3.19 µM (active)
EC50 [11]: > 100 µM (active)
EC50 [12]: 2.98 µM (active)
IC50 [13]: 1.85 µM (active)
AC50 [14]: 0.608 µM (active)

CCN(CC)S(=O)(=O)c1ccc2ncc(C(=O)NCCC3=CCCCC3)c(O)c2c1
EC50 [15]: 10.1 µM (not active)
EC50 [16]: 13.8 µM (not active)
CC50 [17]: > 40 µM (active)
EC50 [18]: 13.3 µM (not active)

CCOC(=O)/C(=C\c1cccnc1)C(=O)c1cc(C(C)=O)c(Nc2ccccc2)s1
EC50 [19]: > 120 µM (not active)
CC50 [20]: 2.91 µM (active)
EC50 [21]: 2.38 µM (inconclusive)
EC50 [22]: 8.03 µM (active)
EC50 [23]: 8.02 µM (active)
EC50 [24]: 7.78 µM (inconclusive)
IC50 [25]: 3.09 µM (active)
EC50 [26]: 6.68 µM (inconclusive)
EC50 [27]: 2.34 µM (active)
AC50 [28]: 2.18 µM (active)
EC50 [29]: 0.503 µM (active)

Cc1cc(-c2nnc3sc(-c4ccc(Cl)cc4Cl)nn23)n[nH]1
EC50 [30]: 15.4 µM (active)
